The values below come from patent US10233173B2, “Substituted 1,2,3-triazoles as NR2B-selective NMDA modulators” (JANSSEN PHARMACEUTICA NV, priority 2016, dated 2019).

This assay has as its target human GluN1/GluN2B NMDA receptors (Homo sapiens, UniProt Q05586+Q13224). The assay is described as follows: Cell-based calcium flux (FLIPR) assay on cloned human NR1/NR2B ion channels expressed in mammalian cells. To be noted: standard assay. In a few lines: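 Calcium influx followed by FLIPR fluorescence after 5 min compound exposure and a further 5 min co-agonist challenge: 10 μM glycine with glutamate at ~EC80 (standard) or EC40 (HTS).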

[1] abbreviates: human GluN1/GluN2B, calcium flux (FLIPR), glutamate ~EC80.
The mark [2] stands for this setting: glutamate at ~EC80, FLIPR calcium flux.

Chain of human GluN1/GluN2B NMDA receptors (Q13224 27-1484, other chains not shown): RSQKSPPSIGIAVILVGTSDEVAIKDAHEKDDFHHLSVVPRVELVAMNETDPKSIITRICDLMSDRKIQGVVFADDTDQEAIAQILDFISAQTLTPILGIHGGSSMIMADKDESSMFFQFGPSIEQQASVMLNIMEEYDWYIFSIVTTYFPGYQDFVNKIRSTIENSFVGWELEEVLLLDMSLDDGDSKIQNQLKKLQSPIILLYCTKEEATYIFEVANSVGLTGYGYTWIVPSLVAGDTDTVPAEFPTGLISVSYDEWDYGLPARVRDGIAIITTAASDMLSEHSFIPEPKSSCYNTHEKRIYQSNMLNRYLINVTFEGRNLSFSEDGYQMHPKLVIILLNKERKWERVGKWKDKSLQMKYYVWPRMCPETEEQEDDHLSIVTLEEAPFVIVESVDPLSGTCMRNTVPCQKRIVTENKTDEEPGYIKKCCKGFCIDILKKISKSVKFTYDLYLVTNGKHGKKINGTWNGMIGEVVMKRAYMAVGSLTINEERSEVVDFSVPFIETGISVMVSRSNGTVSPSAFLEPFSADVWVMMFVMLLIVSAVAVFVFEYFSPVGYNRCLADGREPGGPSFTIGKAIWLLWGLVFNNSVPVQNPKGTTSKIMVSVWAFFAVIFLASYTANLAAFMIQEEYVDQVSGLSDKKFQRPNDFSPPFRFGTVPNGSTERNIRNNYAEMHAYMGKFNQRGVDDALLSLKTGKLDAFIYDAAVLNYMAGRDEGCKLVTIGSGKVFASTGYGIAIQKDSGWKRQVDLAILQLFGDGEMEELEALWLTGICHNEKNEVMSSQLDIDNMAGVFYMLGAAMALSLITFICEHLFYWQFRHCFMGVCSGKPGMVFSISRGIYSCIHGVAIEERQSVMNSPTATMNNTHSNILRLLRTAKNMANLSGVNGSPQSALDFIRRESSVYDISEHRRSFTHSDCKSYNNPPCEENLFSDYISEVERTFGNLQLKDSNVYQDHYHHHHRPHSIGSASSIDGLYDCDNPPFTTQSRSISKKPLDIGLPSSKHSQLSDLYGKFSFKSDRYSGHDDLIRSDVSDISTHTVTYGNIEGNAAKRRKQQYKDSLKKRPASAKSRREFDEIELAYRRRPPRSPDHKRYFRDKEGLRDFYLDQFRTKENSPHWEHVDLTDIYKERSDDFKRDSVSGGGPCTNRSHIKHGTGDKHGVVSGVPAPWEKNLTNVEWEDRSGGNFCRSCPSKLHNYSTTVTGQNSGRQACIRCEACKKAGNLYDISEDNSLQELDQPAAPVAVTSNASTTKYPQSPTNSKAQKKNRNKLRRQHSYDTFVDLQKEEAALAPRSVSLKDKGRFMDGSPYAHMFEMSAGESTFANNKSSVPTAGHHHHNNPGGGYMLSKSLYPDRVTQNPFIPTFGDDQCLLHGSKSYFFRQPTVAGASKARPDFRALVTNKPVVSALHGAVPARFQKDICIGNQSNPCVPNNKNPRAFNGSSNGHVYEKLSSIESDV

As usually defined, the IC50 is the concentration that inhibits the measured activity by half. `COc1cnc(O[C@@H](C)c2cn(-c3ccc(Cl)c(OC(F)F)c3)nn2)nc1` [Example 381, 2-[(1S)-1-[1-[4-Chloro-3-(difluoromethoxy)phenyl]triazol-4-yl]ethoxy]-5-methoxy-pyrimidine]: the IC50 under setting [1] came out at 0.196 µM.
As for `Nc1ccnc(OCc2cn(-c3ccc(Cl)c(OC(F)F)c3)nn2)n1` [Example 382, 2-((1-(4-chloro-3-(difluoromethoxy)phenyl)-1H-1,2,3-triazol-4-yl)methoxy)pyrimidin-4-amine], under setting [1], the IC50 is 0.021 µM.
In the case of `OCc1ccnc(OCc2cn(-c3ccc(Cl)c(OC(F)F)c3)nn2)n1` [Example 383, [2-[[1-[4-Chloro-3-(difluoromethoxy)phenyl]triazol-4-yl]methoxy]pyrimidin-4-yl]methanol], under setting [1], the IC50 came out at 0.008 µM.
On the same count and under the same terms, the same measure for `COCc1ccnc(OCc2cn(-c3ccc(Cl)c(OC(F)F)c3)nn2)n1` [Example 384, 2-[[1-[4-Chloro-3-(difluoromethoxy)phenyl]triazol-4-yl]methoxy]-4-(methoxymethyl)pyrimidine]: 0.018 µM; for `CC(C)(O)c1cnc(OCc2cn(-c3ccc(Cl)c(OC(F)F)c3)nn2)nc1` [Example 385, 2-[2-[[1-[4-Chloro-3-(difluoromethoxy)phenyl]triazol-4-yl]methoxy]pyrimidin-5-yl]propan-2-ol]: 0.028 µM; for `CC(C)Oc1ccnc(OCc2cn(-c3ccc(Cl)c(OC(F)F)c3)nn2)n1` [Example 386, 2-((1-(4-Chloro-3-(difluoromethoxy)phenyl)-1H-1,2,3-triazol-4-yl)methoxy)-4-isopropoxypyrimidine]: 0.504 µM.
On to `COC(=O)c1ccnc(OCc2cn(-c3ccc(Cl)c(OC(F)F)c3)nn2)n1` [Example 387, Methyl 2-((1-(4-chloro-3-(difluoromethoxy)phenyl)-1H-1,2,3-triazol-4-yl)methoxy)pyrimidine-4-carboxylate], for which the IC50 under setting [1] stood at 0.068 µM.
With `Fc1cnc(OCc2cn(-c3ccc(Cl)c(OC(F)F)c3)nn2)nc1NCC(F)F` [Example 388, 2-[[1-[4-Chloro-3-(difluoromethoxy)phenyl]triazol-4-yl]methoxy]-N-(2,2-difluoroethyl)-5-fluoro-pyrimidin-4-amine], the IC50 under setting [1] is 0.842 µM.
For the compound `CNc1nc(OCc2cn(-c3ccc(Cl)c(OC(F)F)c3)nn2)ncc1F` [Example 389, 2-[[1-[4-Chloro-3-(difluoromethoxy)phenyl]triazol-4-yl]methoxy]-5-fluoro-N-methyl-pyrimidin-4-amine], the IC50 under setting [1] was determined as 0.033 µM.
As for `Nc1nc(OCc2cn(-c3ccc(Cl)c(OC(F)F)c3)nn2)ncc1F` [Example 390, 2-((1-(4-Chloro-3-(difluoromethoxy)phenyl)-1H-1,2,3-triazol-4-yl)methoxy)-5-fluoropyrimidin-4-amine], the 50% inhibitory concentration (IC50) under setting [1] turned out to be 0.006 µM.
Still for that read-out and setting: the result for `FC(F)Oc1cc(-n2cc(COc3ncc(N4CCC4)cn3)nn2)ccc1Cl` [Example 391, 5-(Azetidin-1-yl)-2-((1-(4-chloro-3-(difluoromethoxy)phenyl)-1H-1,2,3-triazol-4-yl)methoxy)pyrimidine] reads 0.022 µM.
For `FC1CN(c2cnc(OCc3cn(-c4ccc(Cl)c(OC(F)F)c4)nn3)nc2)C1` [Example 392, 2-((1-(4-Chloro-3-(difluoromethoxy)phenyl)-1H-1,2,3-triazol-4-yl)methoxy)-5-(3-fluoroazetidin-1-yl)pyrimidine], the IC50 under setting [2] is 0.017 µM.
The same measure, in the same setting: the same measure for `FC(F)Oc1cc(-n2cc(COc3ncc(N4CC(F)(F)C4)cn3)nn2)ccc1Cl` [Example 393, 2-((1-(4-Chloro-3-(difluoromethoxy)phenyl)-1H-1,2,3-triazol-4-yl)methoxy)-5-(3,3-difluoroazetidin-1-yl)pyrimidine]: 0.037 µM.
On the same count and under the same terms, the result for `Fc1cccc(OCc2cn(-c3ccc(Cl)c(OC(F)F)c3)nn2)n1` [Example 394, 2-[[1-[4-Chloro-3-(difluoromethoxy)phenyl]triazol-4-yl]methoxy]-6-fluoro-pyridine] reads 0.437 µM.
As to `Fc1ccc(-n2cc(COc3cccc(C(F)(F)F)n3)nn2)cc1OC(F)F` [Example 395, 2-[[1-[3-(Difluoromethoxy)-4-fluoro-phenyl]triazol-4-yl]methoxy]-6-(trifluoromethyl)pyridine], the IC50 under setting [2] came to 0.919 µM.
Same read-out and setting: the result for `Cc1cnc(OCc2cn(-c3ccc(F)c(OC(F)F)c3)nn2)cn1` [Example 396, 2-[[1-[3-(Difluoromethoxy)-4-fluoro-phenyl]triazol-4-yl]methoxy]-5-methyl-pyrazine] reads 0.647 µM.
Still for that read-out and setting: the same measure for `Fc1ccc(-n2cc(COc3cnc(-c4cccs4)cn3)nn2)cc1OC(F)F` [Example 397, 2-[[1-[3-(Difluoromethoxy)-4-fluoro-phenyl]triazol-4-yl]methoxy]-5-(2-thienyl)pyrazine]: 10.7 µM.
On to `COCc1ccnc(OCc2cn(-c3ccc(F)c(C(F)F)c3)nn2)n1` [Example 399, 2-[[1-[3-(Difluoromethyl)-4-fluoro-phenyl]triazol-4-yl]methoxy]-4-(methoxymethyl)pyrimidine], for which, under setting [2], the IC50 turned out to be 0.023 µM.
On to `OCc1ccnc(OCc2cn(-c3ccc(F)c(C(F)F)c3)nn2)n1` [Example 400, [2-[[1-[3-(Difluoromethyl)-4-fluoro-phenyl]triazol-4-yl]methoxy]pyrimidin-4-yl]methanol], for which, under setting [2], the IC50 was 0.036 µM.
Still for that read-out and setting: the result for `CC(C)(O)c1cnc(OCc2cn(-c3ccc(F)c(C(F)F)c3)nn2)nc1` [Example 401, 2-[2-[[1-[3-(Difluoromethyl)-4-fluoro-phenyl]triazol-4-yl]methoxy]pyrimidin-5-yl]propan-2-ol] reads 0.017 µM; that for `Fc1ccc(-n2cc(COc3nccc(C(F)F)n3)nn2)cc1C(F)F` [Example 402, 4-(Difluoromethyl)-2-[[1-[3-(difluoromethyl)-4-fluoro-phenyl]triazol-4-yl]methoxy]pyrimidine], 0.051 µM.
Regarding `Fc1ccc(-n2cc(COc3nccc(C(F)(F)F)n3)nn2)cc1C(F)F` [Example 403, 2-[[1-[3-(Difluoromethyl)-4-fluoro-phenyl]triazol-4-yl]methoxy]-4-(trifluoromethyl)pyrimidine], the IC50 under setting [2] is 0.199 µM.
Same read-out and setting: the same measure for `CNC(=O)c1cnc(OCc2cn(-c3ccc(F)c(C(F)F)c3)nn2)nc1` [Example 409, 2-[[1-[3-(Difluoromethyl)-4-fluoro-phenyl]triazol-4-yl]methoxy]-N-methyl-pyrimidine-5-carboxamide]: 0.149 µM; for `CN(C)C(=O)c1ccnc(OCc2cn(-c3ccc(F)c(C(F)F)c3)nn2)n1` [Example 410, 2-[[1-[3-(Difluoromethyl)-4-fluoro-phenyl]triazol-4-yl]methoxy]-N,N-dimethyl-pyrimidine-4-carboxamide]: over 2.99 µM.
Take `COc1nc(OCc2cn(-c3ccc(F)c(C(F)F)c3)nn2)ncc1C` [Example 411, 2-[[1-[3-(Difluoromethyl)-4-fluoro-phenyl]triazol-4-yl]methoxy]-4-methoxy-5-methyl-pyrimidine]: under setting [2], the IC50 is 0.021 µM.
In the case of `Nc1ccnc(OCc2cn(-c3ccc(F)c(C(F)F)c3)nn2)n1` [Example 412, 2-[[1-[3-(Difluoromethyl)-4-fluoro-phenyl]triazol-4-yl]methoxy]pyrimidin-4-amine], the IC50 under setting [2] was found to be 0.124 µM.
With `CNc1ccnc(OCc2cn(-c3ccc(F)c(C(F)F)c3)nn2)n1` [Example 413, 2-[[1-[3-(Difluoromethyl)-4-fluoro-phenyl]triazol-4-yl]methoxy]-N-methyl-pyrimidin-4-amine], the IC50 under setting [2] was determined as 0.015 µM.
